Results from patent US20020115678A1, “Compounds, compositions and methods for treating antibiotic-resistant infections” (priority 1996, published 2002).

Experiments:
[1] = tested on: Staphylococcus aureus methicillin-sensitive ATCC 29213; test: Susceptibility test (MIC, microtiter serial dilution), methicillin-sensitive S. aureus; type: cell-based; conditions: methicillin-sensitive S. aureus ATCC 29213; MIC by serial dilution in Mueller-Hinton broth
Description: (§1) The strains were streaked on blood agar plates (trypticase soy broth containing 5% sheep cells). A single colony was isolated and grown in Mueller-Hinton Broth (MHB) as recommended by the national Committee for Clinical Laboratory Standards for rapidly growing bacteria. Candida species and related fungi were isolated in a similar manner on brain-heart infusion agar (BHI).
(§2) The antibiotic susceptibility profile of each strain was determined using standard microtiter dilution plates obtained from the Clinical Microbiology Laboratory at Ohio State University Hospitals. The Inocula were prepared by suspending a 4 hour log phase growth in MHB visually equal in turbidity of an 0.5 McFarland standard. Inocula were further diluted and added to microdilution trays to achieve a final density of approximately 1×10^5 CFU/ml. The trays were incubated for 16 to 20 hours at 35° C. The highest dilution at which wells remained clear was considered to be the minimum inhibitory concentration (MIC).
(§3) The MIC and minimum bacterial concentration (MBC) of the strains to the active agents were determined by two-fold dilutions in Mueller-Hinton broth. Susceptibility tests for ATCC-obtained microorganisms and clincal isolates of gram positive bacteria including methicillin-susceptible and resistant Staphylococci, Streptococci, Pneumococci and gram negative bacteria, including Enterobacteriaceae, Pseudomonas, Hemophilus and Neisseria, were performed in microtiter plates as described above. The MIC and MBC were determined after 48 hours incubation at 35-37° C. A sample of 0.01 ml was taken from each clear well at the MIC end-point and streaked on trypticase soy agar plates. After 24 hours incubation, the number of colonies was counted. The amount of the agent required to kill 99.9% of the bacteria was determined as the MBC. Susceptibility tests for ATCC isolates of Candida and other fungi were performed in BHI broth according to the NCCLS method. Two ml of MHB containing serial dilutions of the agents compounds were added to 13×100 mm tubes. An inoculum of 0.1 ml (prepared as described above) was then added to each tube. The final inoculum was approximately […]. The tubes were incubated at 35° C. in ambient air and read at 24 hours. The highest dilution at which the tubes remained clear was considered to be the MIC.
(§4) The MBC was determined as follows: After 48 hours incubation, tubes without visible growth were vortexed. A sample of 0.01 ml was taken from each tube and streaked on trypticase soy agar plates. After 24 hours, incubation, the number of colonies was counted. The amount of agent required to kill 99.9% of bacterial inoculum in the inoculum was determined as the MBC. Susceptibility tests for Mycobacteria were performed according to standard methods at the national Institutes of Health.
(§5) Compounds of the invention were dissolved in 1 ml of methanol and stored in aliquots at −70° C. They were diluted in Mueller-Hinton broth for final screening. Compositions were tested in 0.1 ml volumes by serial dilution in microtiter plates against Staphylococcus aureus methicillin-sensitive ATCC 29213 and the methicillin-resistant wild type T67738, as described above. The T67738 was resistant to most antimicrobial drugs, including ciprofloxacin.

[2] = tested on: Staphylococcus aureus methicillin-resistant wild type T67738; test: Susceptibility test (MIC, microtiter serial dilution), methicillin-resistant S. aureus; type: cell-based; conditions: MIC by serial dilution in Mueller-Hinton broth
Description: as §1, §2, §3, §4, §5

Mycobacteria = test: Susceptibility tests for Mycobacteria (standard methods, National Institutes of Health); type: cell-based
Description: as §4

bacterial pathogens = conditions: background statement; cited from earlier work

Structure (SMILES) | Effective Concentration S. aureous Sens. [1] | Effective Concentration S. aureous Resist. [2] | Effective Concentration Mycobacteria (Mycobacteria) | activity against bacterial pathogens in vitro (bacterial pathogens)
OC(c1cc(-c2ccc(Cl)cc2)nc2ccccc12)C1CCCCN1 (centres unmarked) [#7929] | 6.25 µg/mL | 6.25 µg/mL | – | –
OC(c1cc(-c2ccccc2)nc2c(Cl)cc(Cl)cc12)C1CCCCN1 (centres unmarked) [#7930] | <.08 µg/mL | 1.6 µg/mL | 2 µg/mL | –
COc1cc(C(F)(F)F)c2nc(C(F)(F)F)cc(C(O)C3CCCCN3)c2c1 (centres unmarked) [#159314] | 6.25 µg/mL | 3.1 µg/mL | – | –
OC(c1cc(-c2ccc(C(F)(F)F)cc2)nc(-c2ccc(C(F)(F)F)cc2)c1)C1CCCCN1 (centres unmarked) [#153141] | – | – | 0.5 µg/mL | –
CCCC(CCC)NCC(O)c1cc(-c2ccc(Cl)cc2)nc(-c2ccc(Cl)cc2)c1 (centres unmarked) [#153136] | – | 3.0 µg/mL | – | –
CCC1CN2CCC1CC2C(O)c1ccnc2ccc(OC)cc12 (centres unmarked) [#112312] | 1.56 µg/mL | 1.56 µg/mL | 128 µg/mL | –
COc1ccc2nc(-c3ccc(Cl)c(Cl)c3)cc(C(O)C3CCCCN3)c2c1 (centres unmarked) [#259398] | 1.56 µg/mL | 1.56 µg/mL | – | –
OC(c1cc(C(F)(F)F)nc2c(C(F)(F)F)cccc12)C1CCCCN1 (centres unmarked) [Mefloquine] | – | – | – | some activity
OC(c1cc(-c2ccc(Cl)cc2)nc2c(Cl)cc(Cl)cc12)C1CCCCN1 (centres unmarked) [#7936] | <0.8 µg/mL | <0.8 µg/mL | – | –
O=C(c1cc(-c2ccccc2)nc2c(Cl)cc(Cl)cc12)C1CCCCN1 (centres unmarked) [#169446] | 1.6 µg/mL | 1.6 µg/mL | 2 µg/mL | –
